Source: publication PMC4157337 (Peptides, 2013)
pKi: −log10 of the molar value.

Assays:
[1] = cited from earlier work
[2] = system: Ang-(1-7) peptidase (CSF); details: sheep CSF, earlier study; cited from earlier work
[3] = system: Ang-(1-7) peptidase (CSF); assay: Inhibitor profile: [125I]-Ang-; assay type: biochemical, sheep; details: text to Figure 1D-F; pooled CSF
neurolysin = details: cited from earlier work
[4] = molecular target: TOP (thimet oligopeptidase); details: cited from earlier work
[5] = system: Ang-(1-7) peptidase (CSF); assay: Competition of peptides for conversion of [125I]-Ang-; details: pooled CSF, inhibitor cocktail, 120 min, 37°C; Figure 4
[6] = system: Ang-(1-7) peptidase (CSF); assay: Peptidase kinetics; assay type: biochemical; details: sheep CSF, control and BMX; product [125I]-Ang-(1-4)
[7] = system: Ang-(1-7) peptidase (CSF); assay: pH profile of [125I]-Ang-; assay type: biochemical, sheep; details: pH 5 to 8.5; N = 3
neprilysin = details: no reference given; quoted as known selective inhibitor; cited from earlier work

C[C@H]1C[C@H]2[C@@H]3CCC4=CC(=O)C=C[C@]4(C)[C@@]3(F)[C@@H](O)C[C@]2(C)[C@@]1(O)C(=O)CO [betamethasone]
ACE2 activity in renal cortex, isolated tubules and urine, in words ([1]; BMX sheep): lower
ACE2 activity in the circulation, in words ([1]; adult BMX offspring): decreased
soluble ACE activity in the circulation, in words ([1]; adult BMX offspring): increased
MAP, in words ([1]; antenatal exposure, by 6 months of age): elevated MAP
baroreflex sensitivity (BRS), in words ([1]; antenatal exposure, by 6 weeks): decreased BRS

O=C(O)c1cc[c]([Hg][Cl])cc1 [PCMB, p-chloromercuribenzoic acid]
conversion of Ang-(1-7) to Ang-(1-4) in CSF, in words [2]: abolished

Pro-Ile
attenuation of metabolism of Ang-(1-7) to Ang-(1-4), in words [3]: failed to attenuate
pKi (neurolysin): 4.05
sensitivity of neurolysin forms to inhibition, in words (neurolysin; cytosolic and mitochondrial forms): sensitive to Pro-Ile inhibition

1-carboxy-3-phenyl-propyl (Ala-Ala-Phe-4-Abz-OH [CFP]
attenuation of metabolism of Ang-(1-7) to Ang-(1-4), in words [3]: failed to attenuate
pKi (neurolysin): 5.40
pKi [4]: 6.74

neurotensin
extent of inhibition of enzyme activity over the concentration range [5]: 15%
extent of inhibition of enzyme activity, in words [5]: poor competitor

[^125I]-Ang-(1-7): iodinated Ang-(1-7), substrate; chloramine T method
site of hydrolysis [6]: Tyr^4-Ile^5 bond
conversion in BMX versus control CSF, in words [7]: higher activity than the control

O=C(O)C(O)CNC(=O)[C@H](Cc1ccccc1)NC(CCc1ccccc1)C(=O)O (stereo partly drawn) [SCH39370]
attenuation of metabolism of Ang-(1-7) to Ang-(1-4), in words [3]: failed to attenuate
pKi (neprilysin): 7.96
